Test results taken from article PMC6304418, “A Novel Compound Targeting Protease Receptor 1 Activators for the Treatment of Glioblastoma” (Frontiers in Neurology, 2018).
Where a SMILES comes first, the peptide text is derived from it. The star is where a group is joined. Tos = Cc1ccc(S(=O)(=O)*)cc1; CH2Cl = ClC*

Assays:
[1] = tested on: CNS-1 tumors in rat brains; test: Histopathology of CNS-1 GBM rat brains (H&E, Ki67); format: in vivo
Protocol: (§1) Rats were allocated to three groups. 1. Control group (n = 15) treated with alzet-pumps contain saline. 2. Moderate dose treated group (n = 16) treated with alzet-pump containing SIXAC (2μg/kg/day). 3. High dose treated group (n = 14) treated with alzet-pumps contain SIXAC (20μg/kg/day). Survival was registered daily and the brains were dissected immediately after death determination and were placed in 4% PFA and kept at 4°C. Upon MRI scanning the brains were moved to PBS containing tubes, scanning was performed and ROI were quantified.
Formalin-fixed, paraffin-embedded brains were serially sectioned into 4 μm sections and stained with Hematoxylin and Eosin (H&E). Tumor localization and detailed evaluation was conducted by a senior neuropathologist (NS). Mitosis rate was assessed manually by 2 observers who analyzed 10 fields from each examined brain. Serial 4 μm sections were used for immune-histochemical staining using a commercially available monoclonal rabbit anti-Ki67 antibody (clone SP6,# RM-9106-S, Thermo Scientific, 1:300) according to standard procedures and fully automated protocol. A positive control was added on the right side of the slides for immune-histochemistry. The slides were automatically scanned via Aperio Versa 200 System (leica) using X20 and X40 equivalent objectives. Digital images were captured with Leica DM6000B microscope by AperioImageScope software. The Ki67 index was defined as positive stained nuclei (DAB positive)/all stained nuclei. Ten fields from each tested brain were used for analysis of Ki67 index. The indices were automatically calculated by means of ImmunoRatio application (Version 1.0c) ([43]).

[2] = SIXAC stability over time at 37°C, measured by its inhibition of thrombin; format: physicochemical; details: 400 μM SIXAC incubated and sampled, read-out inhibition of 0.05 U/ml thrombin
Protocol: Thrombin activity was assessed using a fluorogenic thrombin substrate (Bachem I-1560, excitation 360 nm; emission 465 nm). As previously described ([19], [36]), the reactions were carried out in a black 96-well microplate. All reactions were performed in Tris buffer (in mM: 150 NaCl, 1 CaCl2, 50 Tris-HCl: pH 8.0) and in the presence of endopeptidase inhibitors (0.1 mg/ml, bestatin hydrochloride—B8385, Sigma; 200 μM prolylendopeptidase inhibitor II, 537011, Merck Millipore) to eliminate the effect of widely abundant CNS endopeptidases on the assay. Known bovine thrombin concentrations (T-4648, Sigma) were used to create a calibration curve for each experiment. IC50 for inhibition of C6 glioma-generated thrombin activity by the molecules was measured in the medium secreted from the cells as described before ([19]). Briefly, C6 cells were seeded (5 × 10^4 cells/ml, 200 μl per well) and allowed to attach the well bottom for 24 h. […] The substrate was added and fluorescence was measured. […] Inhibition of commercial thrombin by SIXAC was measured by applying increasing concentrations of SIXAC (10^−12-10^−5M final concentration) to wells containing 0.05U/ml thrombin (final concentration). […] The sampled SIXAC was added to a constant concentration of thrombin (0.05 U/ml) and thrombin activity was measured. […] All other measures were calculated as a portion of the total activity.

[3] = tested on: CNS-1 inoculated Lewis rats; test: Survival study in CNS-1 GBM rat model; format: in vivo
Protocol: Adult Lewis rats (270–335 g, Harlan, Jerusalem, Israel) were housed in a standard conditions and fed a standard diet. Water was available ad libitum. Ambient temperature was set to 22°C to 23°C with day/night light control. The protocols of this study were approved by the Sheba Medical Center Committee on the Use and Care of Animals (permit No: 972/15) according to the ARRIVE Guidelines. Maximum efforts were made in order to minimize suffering and pain. The humane endpoints were the inability to rise or ambulate and a severe weight loss (20% of initial body weight).
The rats were anesthetized via IM injection of Ketamine-Xylazine (100 mg/kg, 16 mg/kg, respectively). A midline scalp incision was made, and a 1 mm burr hole was drilled (coordinates 1 mm lateral × 3 mm posterior to the Bregma). Tumor implantation was performed using a 30 gauge needle attached to a 25 μl syringe containing 10 μl of CNS-1 pellet 5 × 10^7cells/ml. The rats were positioned into a stereotactic frame in order to inject the cells at the right corpus striatum 5.5 mm deep in the brain tissue. […] The needle was gently pulled out 1 min after the pump was stopped. The burr hole was then sealed with bone wax and the skin was sutured.
The animals were implanted with osmotic pumps attached to brain infusion tube (Alzet, Cupertino, CA, USA). Implantation was performed 5 days after tumor inoculation. Two different types of osmotic pump were used: in the imaging study the pumps implanted released 1 μl/h for 7 days (model #2001), while in the survival study the pumps released 0.5 μl/h for 14 days (model #2002). The pumps were preloaded with either saline or SIXAC (in indicated concentrations). The pumps were primed in saline bath at 37°C for 24 h as a pre-implantation procedure and the function of each pump was reassured by assessing dripping. The Alzet pump was implanted subcutaneously, a catheter was placed intracranially thus releasing substances directly to the tumor core.
as §1

**Q.** With Cc1ccc(S(=O)(=O)N[C@@H](C)C(=O)N[C@H](C(=O)N[C@@H](CC(C)C)C(=O)N[C@@H](CC(=O)O)C(=O)N2CCC[C@H]2C(=O)N[C@@H](CCCNC(=N)N)C(=O)CCl)[C@@H](C)O)cc1 [SIXAC] (Tos-ATLDPR-CH2Cl) as the molecule, how does the “mitosis rate (number of mitosis/field, H&E)” value ([1]; SIXAC treated rats, 10 fields per brain, mean ± SEM, control 7.75 ± 1.45, p = 0.03) read?
**A.** 4.9 ± 0.2 mitosis/field

**Q.** And the Ki67 index ([1]; SIXAC treated rats, positive/all stained nuclei, ImmunoRatio, ten fields per brain, mean ± SEM, control 21.55 ± 0.11, p < 0.001)?
**A.** 12.74 ± 0.23

**Q.** And the “H&E finding in a long survivor rat” value ([1]; high dose 20μg/kg/day long survivor, sacrificed at day 40)?
**A.** large cystic area containing residual tissue with foamy macrophages

**Q.** And the “stability: time for which SIXAC was stable and significantly inhibited thrombin” value [2]?
**A.** ≥ 18 days

**Q.** And the “survival, combined SIXAC groups relative to controls (in words)” value ([3]; 2μg/kg/day and 20μg/kg/day combined)?
**A.** robust effect of treatment

**Q.** What about the “survival rate vs. saline, moderate dose (in words)” value ([3]; 2μg/kg/day, log-rank test, one tailed p = 0.01) of the same molecule?
**A.** significantly prolonged in comparison to the saline treated group

**Q.** And the “median survival, high dose” value ([3]; 20μg/kg/day, intracranial Alzet pump, 14 days, n = 14, control 16 days, log-rank one tailed p < 0.05)?
**A.** 17 days

**Q.** And the “survival rate vs. saline, high dose (in words)” value ([3]; 20μg/kg/day, log-rank test, one tailed p < 0.05)?
**A.** less pronounced effect for the high dose group

**Q.** And the “survival, trend over three groups (in words)” value ([3]; saline, 2μg/kg/day, 20μg/kg/day, log-rank test for trend p = 0.030)?
**A.** significant trend of prolonged survival
